Data set [1] relates to NO production in LPS-stimulated RAW 264.7 cells. Briefly: Nitric oxide production inhibitory assay (Griess) in LPS-stimulated RAW 264.7 cells. In kind it is cell-based, murine. Conditions: for IC50: Mus musculus, RAW264.7, LPS (2 μg/mL), 24 h; for reduction of NO production: 100 μg/mL. As to the method:
(§1) Cancerous cell lines (MCF-7: human breast adenocarcinoma cells; HepG2: human hepatocellular carcinoma cells; Caco-2: human epithelial colorectal adenocarcinoma cells; A549: human epithelial lung adenocarcinoma cells), obtained from the American Type Culture Collection (ATCC) (Rockville, MD, United States of America), were cultured in Dulbecco’s Modified Eagle’s Medium (DMEM) high glucose (4.5 g/L) containing L-glutamine (4 mM) and sodium-pyruvate (Hyclone™) supplemented with 10% (v/v) fetal bovine serum (FBS) (Capricorn Scientific GmbH, South America), and incubated at 37°C with 5% CO2 in a humidified environment. African green monkey (Vero) kidney cells (also obtained from ATCC), a non-cancerous cell line, were grown in DMEM high glucose (4.5 g/L) containing L-glutamine (Lonza, Belgium) and supplemented with 5% FBS (Capricorn Scientific GmbH, South America) and 1% gentamicin (Virbac, RSA) in the same environment as cancer cells. The RAW 264.7 murine macrophage cells (obtained from ATCC) were cultured in DMEM high glucose (4.5 g/L) containing L-glutamine (Lonza, Belgium), supplemented with 10% FBS (Capricorn Scientific GmbH, South America) and 1% penicillin/streptomycin/fungizone (PSF) solution, and kept at 37°C in a 5% CO2 humidified environment.
Nitric oxide (NO) production was evaluated in lipopolysaccharide (LPS)-stimulated RAW 264.7 cells by measuring the influence of tested compounds on the accumulation of nitrite, an indicator of NO in the cell supernatant, which can be detected with Griess reagent (Merck, Darmstadt, Germany). Briefly, the RAW 264.7 cells at their exponential growth phase were seeded at a density of 2×10^4 cells per well in 96 well-microtiter plates, and they were incubated overnight at 37°C in a 5% CO2 humidified environment to allow attachment. […] Then, culture medium containing LPS (2 μg/mL) was added to each well and further incubated for 24 h at 37°C in a 5% CO2 humidified environment. Thereafter, 100 μL of cell supernatant from each well were transferred into a new 96-well microtiter plate and an equal volume of Griess reagent was added according to protocol described by the manufacturer. The microtiter plate was incubated for 10 min in the dark at room temperature, and the absorbance of the mixture was measured at 550 nm on a microplate reader (Synergy Multi-Mode Reader, BioTek, Winooski, United States of America). The quantity of nitrite was determined from a sodium nitrite standard curve, and the percentage of NO production was calculated based on the ability of each tested sample to inhibit nitric oxide production by LPS-stimulated RAW 264.7 cells compared to the control (cells treated with LPS without samples which was considered as 100% NO production). Additionally, the cell viability of treated cells was determined by using the MTT assay as previously described ([Mosmann, 1983]).

A further data set concerns RAW 264.7 cells. As to the kind of experiment: MTT cell viability of LPS-stimulated RAW 264.7 cells. Type of data set: cell-based, murine. The following applies: 100 μg/mL. As to the method: as §1, with “The RAW 264.7 murine macrophage cells (obtained from ATCC) were cultured in DMEM high glucose (4.5 g/L) containing L-glutamine (Lonza, Belgium), supplemented with 10% FBS (Capricorn Scientific GmbH, South America) and 1% penicillin/streptomycin/fungizone (PSF) solution, and kept at 37°C in a 5% CO2 humidified environment.” left out
Nitric oxide (NO) production was evaluated in lipopolysaccharide (LPS)-stimulated RAW 264.7 cells by measuring the influence of tested compounds on the accumulation of nitrite, an indicator of NO in the cell supernatant, which can be detected with Griess reagent (Merck, Darmstadt, Germany). […] The microtiter plate was incubated for 10 min in the dark at room temperature, and the absorbance of the mixture was measured at 550 nm on a microplate reader (Synergy Multi-Mode Reader, BioTek, Winooski, United States of America). The quantity of nitrite was determined from a sodium nitrite standard curve, and the percentage of NO production was calculated based on the ability of each tested sample to inhibit nitric oxide production by LPS-stimulated RAW 264.7 cells compared to the control (cells treated with LPS without samples which was considered as 100% NO production). Additionally, the cell viability of treated cells was determined by using the MTT assay as previously described ([Mosmann, 1983]).

The subject of data set [2] is caspase-3/-7 activity in MCF-7 cells. As to the kind of experiment: Caspase-3/-7 luminescence assay (Caspase-Glo 3/7) in MCF-7 cells. In kind it is cell-based, human. Conditions: 2×IC50, 18 h, vs cells treated with DMSO 0.5%. As to the method:
The effect of the most bioactive compounds (2), (6) and (9) were used for the analysis of caspase-3 and caspase-7 activities on MCF-7 cells by using the Caspase-Glo® 3/7 kit (Promega, Germany). In fact, MCF-7 cells were seeded at a density of 10^4 cells per well on 96-well microtiter plates, and the plates were incubated overnight at 37 °C in a 5% CO2 humidified environment. […] Thereafter, 100 µL of Caspase-Glo® 3/7 reagent was added to each well, mixed and incubated in the dark for 1 h at room temperature. The luminescence was then measured on a microplate reader (Synergy Multi-Mode Reader, BioTek, Winooski, United States of America). The caspase-3/-7 activity was expressed as fold change of cells treated with 0.5% DMSO (control).

In data set [3] the test system is human normal skin fibroblasts (WS1) cell lines. Further details: method as in Gauthier et al., 2009. The following applies: ref Gauthier et al., 2009; cited from earlier work.
The subject of data set [4] is human lung cancer cells A549. Also noted: method as in Gauthier et al., 2009; Gao et al., 2016. The following applies: ref Gauthier et al., 2009; Gao et al., 2016; cited from earlier work.
The test system of data set [5] is cancer cells (MCF-7, HepG2, Caco-2 and A549) and non-cancerous Vero cells. As to the kind of experiment: Time-dependent cytotoxic effect on cell growth (MTT). The following applies: 10 μg/mL; 12, 24 and 48 h. Type of data set: cell-based. As to the method: The cancerous and non-cancerous cells were seeded at a density of 10^4 cells per well in 96-well microtiter plates, and they were incubated overnight at 37°C with 5% CO2 in a 5% CO2 humidified environment in order to allow the attachment of cells at the bottom of the plates. Then, the cells were exposed to increasing concentrations of compounds (100, 50, 25, 10 and 5 μg/mL) dissolved in dimethyl sulfoxide (DMSO) and further diluted in fresh culture medium. In this assay, the final concentration of DMSO in the culture medium was 0.5% used as negative control while doxorubicin hydrochloride (Pfizer, United States of America) was used as a positive control. […] After 4 h of incubation, the medium was gently removed, and the formazan crystals were solubilized in 50 µL of DMSO. The absorbance was measured at 570 nm after shaking for 1 min on a microplate reader (Synergy Multi-Mode Reader, BioTek, Winooski, United States of America).

These results are taken from PMC10320002, “In vitro antiproliferative, anti-inflammatory effects and molecular docking studies of natural compounds isolated from Sarcocephalus pobeguinii (Hua ex Pobég)” (Frontiers in Pharmacology, 2023).

pIC50: −log10 of the molar value. Where “and” joins values, the source holds several entries; their conditions need not be identical. Equal values may be shown once. Some results are limits rather than exact numbers.

For `C[C@]12COCC=C1C[C@H]1c3[nH]c4ccccc4c3CCN1C2=O` [Compound 10, latifoliamide C], the IC50 in data set [1] is > 100 µg/mL and > 324 µM.

`C[C@@H]1CC[C@]2(C(=O)O)CC[C@]3(C(=O)O)C(=CCC4[C@@]5(C)CC[C@H](O[C@H]6O[C@H](C)[C@@H](O)[C@H](O)[C@H]6O)C(C)(C)C5CC[C@]43C)C2[C@H]1C` (stereo partly drawn) [Compound 6, quinovic acid 3-O-[α-D-quinovopyranoside]]: the “cell viability of LPS-stimulated RAW 264.7 cells” value (“cell viability” below) in the data set with RAW 264.7 cells is listed as “significantly (p < 0.05) reduced the cell viability”. Further, in data set [1], the “reduction of NO production” value was “at least 50%”; the IC50 was 18.2 µg/mL and 28.7 µM. Also, the “fold change in the activation of caspase-3/-7 activity” value in data set [2] is reported as “up to 2 fold”.

As for `C[C@@H]1CC[C@]2(C(=O)O)CC[C@]3(C(=O)O)C(=CCC4[C@@]5(C)CC[C@H](O[C@@H]6O[C@H](C)[C@@H](O)[C@H](O)[C@H]6O)C(C)(C)C5CC[C@]43C)C2[C@H]1C` (stereo partly drawn) [Compound 9, quinovic acid 3-O-[β-D-quinovopyranoside]], the “cell viability” value in the data set on RAW 264.7 cells is recorded as “significantly (p < 0.05) reduced the cell viability”. In data set [1], the “reduction of NO production” value is reported as “at least 50%”; the half-inhibitory concentration (IC50) is 49 µg/mL and 77.4 µM.

In the case of `CC1(C)CC[C@]2(C(=O)O)CC[C@]3(C)C(=CC[C@@H]4[C@@]5(C)CC[C@H](O)[C@@](C)(CO)[C@@H]5CC[C@]43C)[C@@H]2C1` [Compound 2, hederagenin], the “cell viability” value in the data set with RAW 264.7 cells was “significantly (p < 0.05) reduced the cell viability”. Further, the pIC50 in data set [3] is 4.11. Also, in data set [1], the “reduction of NO production” value is “at least 50%”; the half-inhibitory concentration (IC50) was 65.1 µg/mL and 138 µM. Besides, the pIC50 in data set [4] is 4.58 and 4.41. Besides, in data set [5], the “time-dependent cytotoxic effect on cell growth” value was “time-dependent manner”. For the same compound, in data set [2], the “fold change in the activation of caspase-3/-7 activity” value is “up to 2 fold”.
